According to paper PMC11978679, “Pyrazolyl amide-chalcones conjugates: Synthesis and antikinetoplastid activity” (Naunyn-Schmiedeberg's Archives of Pharmacology, 2024):
Like-named read-outs stand apart in the source and are kept apart here.

Columns and labels:
[1] = system: Trypanosoma cruzi (intracellular amastigotes); experiment: In vitro anti-parasitic assay, T. cruzi (β-galactosidase/CPRG readout); conditions: TULAHUEN, MRC-5 SV2, read-out: IC50 T. cruzi
[2] = system: human lung fibroblasts (MRC-5); experiment: In vitro cytotoxicity assay, MRC-5SV2 cells (resazurin); assay type: cell-based; conditions: for IC50: Homo sapiens, MRC5, 72 h, cytotoxicity, lung fibroblast, 3 days
Method: (§1) Briefly, 1.5 × 10^5 cells/mL cells were cultured with compound dilutions at 37 °C and with 5% CO2. Cell growth was compared to untreated-control wells (100% cell growth) and medium-control wells (0% cell growth). After 3 days incubation, cell viability was assessed fluorometrically after addition of 50 μL resazurin per well. […] The results were expressed as % reduction in cell growth/viability compared to control wells and an IC50 value was determined.

[3] = system: Trypanosoma brucei brucei (blood stream trypomastigotes); experiment: Drug susceptibility resazurin assay, T. b. brucei; conditions: 72 h, read-out: IC50 T. b. brucei
[4] = system: primary mouse macrophages (PMMs); experiment: In vitro cytotoxicity against primary mouse macrophages; assay type: cell-based; conditions: for IC50: Macrophage, cytotoxicity, primary mouse macrophages
[5] = system: Leishmania infantum (intracellular amastigotes); experiment: In vitro anti-Leishmania assay in primary peritoneal mouse macrophages (Giemsa, microscopy); conditions: Macrophage, 120 h, read-out: IC50 L. infantum
[6] = system: Trypanosoma brucei rhodesiense (blood stream trypomastigotes); experiment: Drug susceptibility resazurin assay, T. b. rhodesiense; conditions: 72 h, read-out: IC50 T. b. rhodesiense
L. amazonensis = system: L. amazonensis; design: method as in Bernardino et al. [2006]; conditions: ref Bernardino et al. [2006]; read-out: IC50 against L. amazonensis; cited from earlier work
T. b. rhodesiense [7] = system: T. b. rhodesiense; design: method as in Agarwal et al. [2024]; conditions: imidazo[1,2-a]pyridine-chalcones; ref Agarwal et al. [2024]; read-out: IC50 against T. b. rhodesiense; cited from earlier work
[8] = system: T. cruzi, T. b. brucei, T. b. rhodesiense and L. infantum; experiment: Antikinetoplastid activity, whole panel, verdict in words; conditions: compounds lacking the chalcone moiety
[9] = In vitro cytotoxicity assay, MRC-5SV2 cells (resazurin); assay type: cell-based, human; conditions: human, MRC-5SV2 cells (human lung fibroblasts); cytotoxicity; read-out: CC50 against MRC-5
Method: as §1

T. cruzi = system: T. cruzi; design: method as in García et al. [2018]; conditions: ref García et al. [2018]; read-out: EC50 against T. cruzi; cited from earlier work
L. panamensis = system: L. panamensis; design: method as in García et al. [2018]; conditions: ref García et al. [2018]; read-out: EC50 against L. panamensis; cited from earlier work
[10] = system: promastigotes of L. aethiopica; conditions: cited from earlier work
[11] = system: amastigotes of L. aethiopica; design: method as in Bekhit et al. [2015]; conditions: ref Bekhit et al. [2015]; cited from earlier work
T. b. rhodesiense [12] = system: T. b. rhodesiense; design: method as in Bhambra et al. [2017]; conditions: ref Bhambra et al. [2017]; read-out: IC50 against T. b. rhodesiense; cited from earlier work

SMILES: O=C(/C=C/c1cccc(F)c1)c1ccc(NC(=O)c2cn(-c3ccccc3)nc2-c2ccccc2)cc1 [Compound 9h, (E)-N-(4-(3-(3-fluorophenyl)acryloyl)phenyl)-1,3-diphenyl-1H-pyrazole-4-carboxamide]
- IC50 [1]: > 64 µM
- IC50 [2]: 24.8 µM
- IC50 [3]: 6.36 ± 0.11 µM
- IC50 [4]: > 48 µM
- IC50 [5]: 21 ± 11 µM
- IC50 [6]: 1.56 ± 0.11 µM

SMILES: O=[N+]([O-])c1ccc(N/N=C/c2cnn(-c3ccc(Br)cc3)c2)cc1 [I]
- IC50 (L. amazonensis): 50 µM

SMILES: O=C(/C=C/c1cccc([N+](=O)[O-])c1)c1ccc(NC(=O)c2cn(-c3ccccc3)nc2-c2ccccc2)cc1 [Compound 9k, (E)-N-(4-(3-(3-nitrophenyl)acryloyl)phenyl)-1,3-diphenyl-1H-pyrazole-4-carboxamide]
- IC50 [1]: > 64 µM
- IC50 [2]: 19.4 µM
- IC50 [3]: 6.69 µM
- IC50 [4]: > 64 µM
- IC50 [5]: 45.2 µM
- IC50 [6]: 8.22 µM

SMILES: COc1ccc(/C=C/C(=O)c2ccc(NC(=O)c3cn(-c4ccccc4)nc3-c3ccccc3)cc2)cc1 [Compound 9d, (E)-N-(4-(3-(4-methoxyphenyl)acryloyl)phenyl)-1,3-diphenyl-1H-pyrazole-4-carboxamide]
- IC50 [1]: > 64 µM
- melting point: 174 to 175 °C
- IC50 [2]: > 64 µM
- IC50 [3]: 1.64 ± 0.12 µM
- IC50 [4]: > 64 µM
- IC50 [5]: 31.8 ± 19.1 µM
- IC50 [6]: 0.69 ± 0.31 µM

SMILES: O=C(Cn1ccnc1[N+](=O)[O-])NCc1ccccc1 [Benznidazole, reference compound]
- IC50 [1]: 1.35 µM

SMILES: Cc1ccccc1/C=C/C(=O)c1ccc(NC(=O)c2cn(-c3ccccc3)nc2-c2ccccc2)cc1 [Compound 9b, (E)-1,3-diphenyl-N-(4-(3-(o-tolyl)acryloyl)phenyl)-1H-pyrazole-4-carboxamide]
- IC50 [1]: > 64 µM
- cytotoxicity against human lung fibroblasts (MRC-5), in words [2]: non-cytotoxic
- IC50 [2]: > 64 µM
- IC50 [3]: 0.51 ± 0.06 µM
- cytotoxicity against primary mouse macrophages (PMMs), in words [4]: non-cytotoxic
- IC50 [4]: > 36 µM
- IC50 [5]: 18.7 ± 9.18 µM
- IC50 [6]: 0.54 ± 0.24 µM

SMILES: O=C(/C=C/c1ccc(Br)cc1)c1ccc(NC(=O)c2cn3ccccc3n2)cc1 [VI]
- IC50 (T. b. rhodesiense [7]): 1.13 µM

SMILES: O=C(O)c1cn(-c2ccccc2)nc1-c1ccccc1 [Compound 5, 1,3-diphenyl-1H-pyrazole-4-carboxylic acid]
- IC50 [1]: > 64 µM
- antikinetoplastid activity, in words [8]: inactive
- IC50 [2]: 33 µM
- IC50 [3]: > 64 µM
- IC50 [4]: > 64 µM
- IC50 [5]: > 64 µM
- IC50 [6]: > 64 µM

SMILES: O=C(/C=C/c1cccc(Cl)c1)c1ccc(NC(=O)c2cn(-c3ccccc3)nc2-c2ccccc2)cc1 [Compound 9g, (E)-N-(4-(3-(3-chlorophenyl)acryloyl)phenyl)-1,3-diphenyl-1H-pyrazole-4-carboxamide]
- CC50 at 3 days [9]: 6.2 µM
- IC50 [2]: 6.2 µM

SMILES: O=C(/C=C/c1cccnc1)c1ccc(NC(=O)c2cn(-c3ccccc3)nc2-c2ccccc2)cc1 [Compound 9m, (E)-1,3-diphenyl-N-(4-(3-(pyridin-3-yl)acryloyl)phenyl)-1H-pyrazole-4-carboxamide]
- melting point: 198 to 199 °C
- CC50 at 3 days [9]: 0.26 µM
- IC50 [2]: 0.26 µM

SMILES: O=C(/C=C/c1ccc2c(c1)OCO2)c1ccc(NC(=O)c2cn(-c3ccccc3)nc2-c2ccccc2)cc1 [Compound 9n, (E)-N-(4-(3-(benzo[d][1,3]dioxol-5-yl)acryloyl)phenyl)-1,3-diphenyl-1H-pyrazole-4-carboxamide]
- IC50 [1]: > 64 µM
- melting point: 182 to 183 °C
- cytotoxicity against human lung fibroblasts (MRC-5), in words [2]: non-cytotoxic
- IC50 [2]: 64 µM
- IC50 [3]: 3.44 ± 2.88 µM
- cytotoxicity against primary mouse macrophages (PMMs), in words [4]: non-cytotoxic
- IC50 [4]: > 64 µM
- IC50 [5]: > 57.4 µM
- IC50 [6]: 0.46 ± 0.07 µM

SMILES: CC(CCCCCCC[n+]1ccn(C)c1)Oc1ccc(C(=O)/C=C/c2ccco2)cc1 (stereo not drawn) [V]
- EC50 (T. cruzi): 0.66 µM
- EC50 (L. panamensis): 0.78 µM

SMILES: CC(=O)c1ccc(NC(=O)c2cn(-c3ccccc3)nc2-c2ccccc2)cc1 [Compound 7, N-(4-acetylphenyl)-1,3-diphenyl-1H-pyrazole-4-carboxamide]
- IC50 [1]: > 64 µM
- antikinetoplastid activity, in words [8]: inactive
- melting point: 149 to 150 °C
- IC50 [2]: 14.4 µM
- IC50 [3]: > 64 µM
- IC50 [4]: > 64 µM
- IC50 [5]: > 64 µM
- IC50 [6]: > 64 µM

SMILES: CCCCCCCCCCCCCCCCOP(=O)([O-])OCC[N+](C)(C)C [Miltefosine, reference compound]
- IC50 [5]: 7.13 µM

SMILES: O=C(/C=C/c1ccc(Cl)c(Cl)c1)c1ccc(NC(=O)c2cn(-c3ccccc3)nc2-c2ccccc2)cc1 [Compound 9j, (E)-N-(4-(3-(3,4-dichlorophenyl)acryloyl)phenyl)-1,3-diphenyl-1H-pyrazole-4-carboxamide]
- IC50 [1]: 46.1 µM
- melting point: 200 to 201 °C
- IC50 [2]: 22.3 µM
- IC50 [3]: 4.63 µM
- IC50 [4]: > 64 µM
- IC50 [5]: > 64 µM
- IC50 [6]: 4.52 µM

SMILES: O=C(C=Cc1ccccc1)c1ccc(NC(=O)c2cn(-c3ccccc3)nc2-c2ccccc2)cc1 [Compound 9a, N-(4-cinnamoylphenyl)-1,3-diphenyl-1H-pyrazole-4-carboxamide]
- IC50 [1]: > 53.2 µM
- melting point: 160 to 161 °C
- cytotoxicity against human lung fibroblasts (MRC-5), in words [2]: non-cytotoxic
- IC50 [2]: > 64 µM
- IC50 [3]: 0.77 ± 0.27 µM
- cytotoxicity against primary mouse macrophages (PMMs), in words [4]: non-cytotoxic
- IC50 [4]: 32 µM
- IC50 [5]: 7.16 ± 1.88 µM
- IC50 [6]: 0.96 ± 0.49 µM

SMILES: CC(=O)C(C1=NN(C(C)=O)C(c2cn(-c3ccc(Br)cc3)nc2-c2ccc([N+](=O)[O-])cc2)S1)c1ccccc1 (stereo not drawn) [III]
- IC50 against promastigotes of L. aethiopica ([10]; ref Bekhit et al. [2015]): 0.0142 µg/mL
- IC50 against amastigotes of L. aethiopica [11]: 0.13 µg/mL

SMILES: O=C(/C=C/c1ccc(Br)cc1)c1ccc(NC(=O)c2cn(-c3ccccc3)nc2-c2ccccc2)cc1 [Compound 9e, (E)-N-(4-(3-(4-bromophenyl)acryloyl)phenyl)-1,3-diphenyl-1H-pyrazole-4-carboxamide]
- IC50 [1]: > 64 µM
- IC50 [2]: 34.9 µM
- IC50 [3]: 1.13 ± 0.63 µM
- IC50 [4]: > 64 µM
- IC50 [5]: > 46.8 µM
- IC50 [6]: 1.37 ± 0.02 µM

SMILES: O=C(/C=C/c1ccccc1Cl)c1ccc(NC(=O)c2cn(-c3ccccc3)nc2-c2ccccc2)cc1 [Compound 9f, (E)-N-(4-(3-(2-chlorophenyl)acryloyl)phenyl)-1,3-diphenyl-1H-pyrazole-4-carboxamide]
- IC50 [1]: 13.4 ± 4.95 µM
- IC50 [2]: > 64 µM
- IC50 [3]: 0.6 ± 0.33 µM
- IC50 [4]: > 64 µM
- IC50 [5]: 18.7 ± 9.18 µM
- IC50 [6]: 0.81 ± 0.09 µM

SMILES: Cc1ccc(C(=O)Nc2ccc(S(=O)(=O)O)c3cc(S(=O)(=O)O)cc(S(=O)(=O)O)c23)cc1NC(=O)c1cccc(NC(=O)Nc2cccc(C(=O)Nc3cc(C(=O)Nc4ccc(S(=O)(=O)O)c5cc(S(=O)(=O)O)cc(S(=O)(=O)O)c45)ccc3C)c2)c1 [Suramine, reference compound]
- IC50 [3]: 0.04 µM
- IC50 [6]: 0.05 µM

SMILES: Cc1ccc(-n2cc(/C=C/C(=O)c3cccs3)c(-c3ccccc3)n2)cc1 [II]
- EC50 against promastigotes of L. aethiopica ([10]; ref Bekhit et al. [2014]): 0.079 µg/mL

SMILES: O=C(/C=C/c1ccc(F)cc1)c1ccc(NC(=O)c2cn(-c3ccccc3)nc2-c2ccccc2)cc1 [Compound 9i, (E)-N-(4-(3-(4-fluorophenyl)acryloyl)phenyl)-1,3-diphenyl-1H-pyrazole-4-carboxamide]
- IC50 [1]: > 54.2 µM
- IC50 [2]: > 64 µM
- IC50 [3]: 0.78 ± 0.26 µM
- IC50 [4]: > 64 µM
- IC50 [5]: > 37.4 µM
- IC50 [6]: 1.12 ± 0.74 µM

SMILES: O=C(/C=C/c1cccnc1)c1ccccc1Br [IV]
- IC50 (T. b. rhodesiense [12]): 0.38 µM

SMILES: O=C(/C=C/c1cccs1)c1ccc(NC(=O)c2cn(-c3ccccc3)nc2-c2ccccc2)cc1 [Compound 9l, (E)-1,3-diphenyl-N-(4-(3-(thiophen-2-yl)acryloyl)phenyl)-1H-pyrazole-4-carboxamide]
- IC50 [1]: > 64 µM
- melting point: 210 to 211 °C
- IC50 [2]: 39.2 µM
- IC50 [3]: 13.2 ± 19 µM
- IC50 [4]: > 64 µM
- IC50 [5]: > 53.5 µM
- IC50 [6]: 2.7 ± 0.03 µM

SMILES: COc1cccc(/C=C/C(=O)c2ccc(NC(=O)c3cn(-c4ccccc4)nc3-c3ccccc3)cc2)c1 [Compound 9c, (E)-N-(4-(3-(3-methoxyphenyl)acryloyl)phenyl)-1,3-diphenyl-1H-pyrazole-4-carboxamide]
- CC50 at 3 days [9]: 10.7 µM
- IC50 [2]: 10.7 µM
